From paper PMC4700456, “Receptor for detection of a Type II sex pheromone in the winter moth Operophtera brumata” (Scientific Reports, 2016)

Target: T1, ObruOR1 (co-expressed with Obru\Orco) (Operophtera brumata, UniProt A0A140YWR3)
T1 construct: full-length, ObruOR1 430 aa, Obru\Orco 472 aa; pCS2+ vector, cRNAs co-injected in Xenopus laevis oocytes; with Odorant receptor co-receptor
T1 sequence (A0A140YWR3 1-430): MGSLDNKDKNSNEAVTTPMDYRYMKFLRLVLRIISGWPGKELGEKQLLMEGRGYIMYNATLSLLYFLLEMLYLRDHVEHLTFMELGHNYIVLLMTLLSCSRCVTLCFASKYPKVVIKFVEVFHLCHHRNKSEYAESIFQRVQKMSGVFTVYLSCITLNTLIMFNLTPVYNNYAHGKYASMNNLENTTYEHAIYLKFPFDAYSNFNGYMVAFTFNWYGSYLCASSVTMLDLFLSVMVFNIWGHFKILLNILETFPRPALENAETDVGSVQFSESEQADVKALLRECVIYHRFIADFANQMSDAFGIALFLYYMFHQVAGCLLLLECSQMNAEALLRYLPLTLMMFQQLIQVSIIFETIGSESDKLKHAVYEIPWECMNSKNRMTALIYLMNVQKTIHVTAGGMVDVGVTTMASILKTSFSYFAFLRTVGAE
T1 sequence (A0A140YWR4 1-472 partner): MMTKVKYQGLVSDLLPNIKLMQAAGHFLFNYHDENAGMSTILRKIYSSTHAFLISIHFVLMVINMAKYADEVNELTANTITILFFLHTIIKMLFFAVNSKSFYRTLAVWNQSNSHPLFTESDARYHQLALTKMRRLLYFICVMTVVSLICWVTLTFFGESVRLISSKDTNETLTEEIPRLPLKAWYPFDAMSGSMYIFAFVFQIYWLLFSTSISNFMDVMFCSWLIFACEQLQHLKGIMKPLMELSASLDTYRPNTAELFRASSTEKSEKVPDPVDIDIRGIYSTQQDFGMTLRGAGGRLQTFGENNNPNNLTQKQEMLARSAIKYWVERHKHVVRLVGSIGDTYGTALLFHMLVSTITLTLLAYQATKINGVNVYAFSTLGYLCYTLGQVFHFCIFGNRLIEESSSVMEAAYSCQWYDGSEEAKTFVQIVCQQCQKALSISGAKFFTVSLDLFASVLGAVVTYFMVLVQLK
Assay: two-electrode voltage clamp, Xenopus oocytes
Type: cell-based
Conditions: agonist, holding potential -80 mV, Ringer's buffer, dose-response

threshold dose: 10 nM
SMILES: C=C/C=C\C/C=C\C/C=C\CCCCCCCCC [1,3Z,6Z,9Z-19:H, (3Z,6Z,9Z)-1,3,6,9-nonadecatetraene]
